{"source": "patent US20220264878A1", "about": "“HERBICIDAL COMPOSITION CONTAINING R-TYPE PYRIDYLOXY CARBOXYLIC ACID DERIVATIVE AND USE THEREOF” (Qingdao Kingagroot Chemical Compound Co., Ltd., priority 2019, published 2022)", "assay_type_in_all_cases": "in vivo", "key": {"Echinochloa oryzoides [1]": {"system": "Echinochloa oryzoides", "experiment": "Soil sealing treatment, pot culture, fresh weight inhibition (Tables 149, 150)", "procedure": "A method for investigating absolute number was employed, wherein whole seedlings of survival weeds were cut off with a blade along the soil surface, and the fresh weight of the weeds was weighed with an analytical balance. For dead weeds, the fresh weight thereof was zero.\nTheoretical fresh weight inhibition rate of a combination of two active ingredients in each group was calculated by the Gowing method (E0=X+Y−X*Y/100), and then compared with an actually measured inhibition rate (E), thereby effect of the combination (hereafter referred to as combined effect) on weeds was evaluated: the value of E-E0, which was greater than 10%, corresponded to a synergistic effect, the value of E-E0, which was less than −10%, corresponded to an antagonistic effect, and the value of E-E0, which was from −10% to 10%, corresponded to an additional effect. […] Wherein, in the formula, X represented the fresh weight inhibition rate of the active ingredient A in a dosage of P, and Y represented the fresh weight inhibition rate of the active ingredient B in a dosage of Q.\nEchinochloa crusgalli var zelayensis were collected in Huai'an of Jiangsu Province; Echinochloa caudate were collected in Pingluo of Ningxia Province; Echinochloa oryzoides were collected in Qiqiha'er of Heilongjiang Province.\nThe culture was carried out in a controllable sunlight greenhouse at 20 to 30° C., in natural light, and relative humidity of 57% to 72%. […] The test soil was placed quantitatively to ¾ of the pots and then watered from the bottom of the pots to completely wet the soil to saturation. The pretreated test weed seeds were uniformly sowed on the surface, then covered with 0.5-2 cm soil according to the seed size, and ready-for use 24 hours after sowing.\nThe technical materials were all dissolved in acetone, and diluted with an aqueous solution containing 0.1% emulsifier T-80. The dilution is performed as required.\nA ratio of A to the active ingredient B and amounts thereof in each group depends on the characteristics and toxicity of the two agents, as well as the main application purpose of a corresponding formulation. Based on the pre-tests in this study, the dosage of A and the active ingredient B applied alone and in combination were shown in the tables. Water containing the solvent and emulsifier same with the above groups but free of the agents was used as a blank control.\n3 pots with 30 weed seeds per pot were treated in one treatment with 4 replications per treatment.\nThe pots which were sowed and mulched were evenly placed on a platform with an area of 0.5 m^2, and a solution of agents was sprayed on soil surface thereof by the 3WP-2000-type walking spray tower at a dosage of […] and at a spray pressure of 0.3 MPa. After all the solution was sprayed, the valve was closed. After 30 seconds, the door of the spray tower was opened, and the nutritional bowl was taken out. Then the valve was opened, and the spray tube was cleaned by spraying 50 ml of water.\nThis section was same as the section 4) in the post-emergence treatment by performing foliage spray, and was not repeated herein."}, "Echinochloa oryzoides [2]": {"system": "Echinochloa oryzoides", "experiment": "Post-emergence foliage spray, pot culture, fresh weight inhibition (Tables 1-48, 51-98, 101-148; 24 days)", "how_it_was_run": "(§1)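 Pot-grown weeds were thinned to 15 per pot (45 per treatment) and sprayed on foliage at the 5–6-leaf stage for grasses or the 6–7-leaf stage for broadleaves. Agents were dissolved in acetone with 0.1% Tween-80 and applied at 450 kg/ha spray volume and 0.3 MPa. Plants were then kept in a greenhouse. Above-ground fresh weight of survivors, with dead plants counted as zero, gave inhibition versus a solvent/emulsifier blank.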"}, "Digitaria sanguinalis": {"system": "Digitaria sanguinalis", "experiment": "Post-emergence foliage spray, pot culture, fresh weight inhibition (Tables 151-206; 20 days)", "settings": "20 days", "how_it_was_run": "(§2)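 Field-collected weeds grown in pots in a greenhouse (20-30° C., natural light, 57-72% RH), 15 per pot, 3 pots × 4 replicates. Single foliar spray at 4-5 leaves (grasses) or 5-6 leaves (broadleaf) with acetone/0.1% Tween-80 dilutions at 450 kg/ha, 0.3 MPa. Above-ground fresh weight inhibition versus solvent blank at 20 days.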"}, "Alopecurus japonicus": {"system": "Alopecurus japonicus", "experiment": "Post-emergence foliage spray, pot culture, fresh weight inhibition (Tables 151-206; 20 days)", "settings": "20 days", "how_it_was_run": "as §2"}, "Eleusine indica": {"system": "Eleusine indica", "experiment": "Post-emergence foliage spray, pot culture, fresh weight inhibition (Tables 151-206; 20 days)", "settings": "20 days", "how_it_was_run": "as §2"}, "Sinapis arvensis": {"system": "Sinapis arvensis", "experiment": "Post-emergence foliage spray, pot culture, fresh weight inhibition (Tables 151-206; 20 days)", "settings": "20 days", "how_it_was_run": "as §2"}, "Amaranthus retroflexus": {"system": "Amaranthus retroflexus", "experiment": "Post-emergence foliage spray, pot culture, fresh weight inhibition (Tables 151-206; 20 days)", "settings": "20 days", "how_it_was_run": "(§3)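 Pre-germinated seeds (25° C soak 6 h, 28° C dark) grown in pots, thinned to 15 per pot; foliage-sprayed at 4~5-leaf (grasses) or 5~6-leaf (broadleaf) stage, 450 kg/ha spray volume, 0.3 MPa. Agents in acetone diluted with 0.1% Tween-80 water; solvent blank control. Above-ground fresh weight weighed, dead weeds scored zero.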"}, "Capsella bursa-pastoris": {"system": "Capsella bursa-pastoris", "experiment": "Post-emergence foliage spray, pot culture, fresh weight inhibition (Tables 151-206; 20 days)", "settings": "20 days", "how_it_was_run": "as §3"}, "Stellaria media": {"system": "Stellaria media", "experiment": "Post-emergence foliage spray, pot culture, fresh weight inhibition (Tables 1-48, 51-98, 101-148; 24 days)", "settings": "Table 105", "how_it_was_run": "as §1"}, "Malachium aquaticum": {"system": "Malachium aquaticum", "experiment": "Post-emergence foliage spray, pot culture, fresh weight inhibition (Tables 1-48, 51-98, 101-148; 24 days)", "how_it_was_run": "as §1"}, "Galium aparine L.": {"system": "Galium aparine L.", "experiment": "Post-emergence foliage spray, pot culture, fresh weight inhibition (Tables 1-48, 51-98, 101-148; 24 days)", "settings": "24 days", "how_it_was_run": "as §1"}}}
{"smiles": "C[C@@H](Oc1nc(F)c(Cl)c(N)c1Cl)C(=O)[O-].[K+]", "note": "[Compound A4, A1 potassium salt]", "values": [{"measurement": "Control effect (%) of A applied alone in corresponding dose", "setting": "Echinochloa oryzoides [1]; A 75 g a.i./ha", "result": 18.9, "unit": "%"}, {"measurement": "Control effect (%) of A applied alone in corresponding dose", "setting": "Echinochloa oryzoides [1]; A 150 g a.i./ha", "result": 42.5, "unit": "%"}, {"measurement": "Control effect (%) of A applied alone in corresponding dose", "setting": "Echinochloa oryzoides [2]; A 75 g a.i./ha", "result": 52.6, "unit": "%"}, {"measurement": "Control effect (%) of A applied alone in corresponding dose", "setting": "Echinochloa oryzoides [2]; A 150 g a.i./ha", "result": 74.7, "unit": "%"}, {"measurement": "Control effect (%) of A applied alone in corresponding dose", "setting": "Echinochloa oryzoides [2]; Table 101, 75 g a.i./ha", "result": 52.6, "unit": "%"}, {"measurement": "Control effect (%) of A applied alone in corresponding dose", "setting": "Echinochloa oryzoides [2]; Table 101, 150 g a.i./ha", "result": 74.7, "unit": "%"}, {"measurement": "Control effect (%) of A applied alone in corresponding dose", "setting": "Echinochloa oryzoides [2]; Table 102, 75 g a.i./ha", "result": 52.6, "unit": "%"}, {"measurement": "Control effect (%) of A applied alone in corresponding dose", "setting": "Echinochloa oryzoides [2]; Table 102, 150 g a.i./ha", "result": 74.7, "unit": "%"}, {"measurement": "Control effect (%) of A applied alone in corresponding dose", "setting": "Echinochloa oryzoides [2]; Table 104, 75 g a.i./ha", "result": 52.6, "unit": "%"}, {"measurement": "Control effect (%) of A applied alone in corresponding dose", "setting": "Echinochloa oryzoides [2]; Table 104, 150 g a.i./ha", "result": 74.7, "unit": "%"}, {"measurement": "Control effect (%) of A applied alone in corresponding dose", "setting": "Echinochloa oryzoides [2]; Table 106, 75 g a.i./ha", "result": 52.6, "unit": "%"}, {"measurement": "Control effect (%) of A applied alone in corresponding dose", "setting": "Echinochloa oryzoides [2]; Table 106, 150 g a.i./ha", "result": 74.7, "unit": "%"}, {"measurement": "Control effect (%) of A applied alone in corresponding dose", "setting": "Echinochloa oryzoides [2]; Table 107, 75 g a.i./ha", "result": 52.6, "unit": "%"}, {"measurement": "Control effect (%) of A applied alone in corresponding dose", "setting": "Echinochloa oryzoides [2]; Table 107, 150 g a.i./ha", "result": 74.7, "unit": "%"}, {"measurement": "Control effect (%) of A applied alone in corresponding dose", "setting": "Echinochloa oryzoides [2]; Table 108, 75 g a.i./ha", "result": 52.6, "unit": "%"}, {"measurement": "Control effect (%) of A applied alone in corresponding dose", "setting": "Echinochloa oryzoides [2]; Table 108, 150 g a.i./ha", "result": 74.7, "unit": "%"}, {"measurement": "Control effect (%) of A applied alone in corresponding dose", "setting": "Echinochloa oryzoides [2]; Table 109, 75 g a.i./ha", "result": 52.6, "unit": "%"}, {"measurement": "Control effect (%) of A applied alone in corresponding dose", "setting": "Echinochloa oryzoides [2]; Table 109, 150 g a.i./ha", "result": 74.7, "unit": "%"}, {"measurement": "Control effect (%) of A applied alone in corresponding dose", "setting": "Echinochloa oryzoides [2]; Table 110, 75 g a.i./ha", "result": 52.6, "unit": "%"}, {"measurement": "Control effect (%) of A applied alone in corresponding dose", "setting": "Echinochloa oryzoides [2]; Table 110, 150 g a.i./ha", "result": 74.7, "unit": "%"}, {"measurement": "Control effect (%) of A applied alone in corresponding dose", "setting": "Digitaria sanguinalis; A 75 g a.i./ha", "result": 22.2, "unit": "%"}, {"measurement": "Control effect (%) of A applied alone in corresponding dose", "setting": "Digitaria sanguinalis; A 150 g a.i./ha", "result": 56.4, "unit": "%"}, {"measurement": "Control effect (%) of A applied alone in corresponding dose", "setting": "Alopecurus japonicus; A 75 g a.i./ha", "result": 24.9, "unit": "%"}, {"measurement": "Control effect (%) of A applied alone in corresponding dose", "setting": "Alopecurus japonicus; A 150 g a.i./ha", "result": 47.2, "unit": "%"}, {"measurement": "Control effect (%) of A applied alone in corresponding dose", "setting": "Eleusine indica; A 75 g a.i./ha", "result": 38.5, "unit": "%"}, {"measurement": "Control effect (%) of A applied alone in corresponding dose", "setting": "Eleusine indica; A 150 g a.i./ha", "result": 69.2, "unit": "%"}, {"measurement": "Control effect (%) of A applied alone in corresponding dose", "setting": "Sinapis arvensis; A 75 g a.i./ha", "result": 41.1, "unit": "%"}, {"measurement": "Control effect (%) of A applied alone in corresponding dose", "setting": "Sinapis arvensis; A 150 g a.i./ha", "result": 65.9, "unit": "%"}, {"measurement": "Control effect (%) of A applied alone in corresponding dose", "setting": "Amaranthus retroflexus; A 75 g a.i./ha", "result": 26.7, "unit": "%"}, {"measurement": "Control effect (%) of A applied alone in corresponding dose", "setting": "Amaranthus retroflexus; A 150 g a.i./ha", "result": 57.2, "unit": "%"}, {"measurement": "Control effect (%) of A applied alone in corresponding dose", "setting": "Capsella bursa-pastoris; A 75 g a.i./ha", "result": 44.2, "unit": "%"}, {"measurement": "Control effect (%) of A applied alone in corresponding dose", "setting": "Capsella bursa-pastoris; A 150 g a.i./ha", "result": 67.2, "unit": "%"}]}
{"smiles": "COc1ncc(F)c2nc(S(=O)(=O)Nc3c(F)cccc3F)nn12", "note": "[florasulam]", "values": [{"measurement": "Control effect (%) of B applied alone in corresponding dose", "setting": "Stellaria media; 0.375 g a.i./ha", "result": 6.8, "unit": "%"}, {"measurement": "Control effect (%) of B applied alone in corresponding dose", "setting": "Stellaria media; 0.75 g a.i./ha", "result": 22.3, "unit": "%"}, {"measurement": "Control effect (%) of B applied alone in corresponding dose", "setting": "Stellaria media; 1.5 g a.i./ha", "result": 56.9, "unit": "%"}, {"measurement": "Control effect (%) of B applied alone in corresponding dose", "setting": "Stellaria media; 3.0 g a.i./ha", "result": 76.6, "unit": "%"}, {"measurement": "Control effect (%) of B applied alone in corresponding dose", "setting": "Malachium aquaticum; florasulam 0.375 g a.i./ha", "result": 3.6, "unit": "%"}, {"measurement": "Control effect (%) of B applied alone in corresponding dose", "setting": "Malachium aquaticum; florasulam 0.75 g a.i./ha", "result": 17.4, "unit": "%"}, {"measurement": "Control effect (%) of B applied alone in corresponding dose", "setting": "Malachium aquaticum; florasulam 1.5 g a.i./ha", "result": 56.4, "unit": "%"}, {"measurement": "Control effect (%) of B applied alone in corresponding dose", "setting": "Malachium aquaticum; florasulam 3.0 g a.i./ha", "result": 77.6, "unit": "%"}, {"measurement": "Control effect (%) of B applied alone in corresponding dose", "setting": "Galium aparine L.; B 0.375 g a.i/ha", "result": 4.8, "unit": "%"}, {"measurement": "Control effect (%) of B applied alone in corresponding dose", "setting": "Galium aparine L.; B 0.75 g a.i/ha", "result": 20.6, "unit": "%"}, {"measurement": "Control effect (%) of B applied alone in corresponding dose", "setting": "Galium aparine L.; B 1.5 g a.i/ha", "result": 56.3, "unit": "%"}, {"measurement": "Control effect (%) of B applied alone in corresponding dose", "setting": "Galium aparine L.; B 3.0 g a.i/ha", "result": 76.2, "unit": "%"}]}
